We go through six compounds from patent US10005773B2, “1-(4-pyrimidinyl)-1H-pyrrolo[3,2-c]pyridine derivatives as NIK inhibitors” (Janssen Pharmaceutica NV, priority 2013, dated 2018).

Experiment [1] concerns the target T1, Recombinant Human NF-kappaB-Inducing Kinase (NIK/MAP3K14) (Homo sapiens, UniProt Q99558). Nature of the experiment: Biological Assay A: inhibition of recombinant human NIK/MAP3K14 activity (MSD, MBP substrate). The conditions noted are these: 25 μM ATP, 10 nM NIK/MAP3K14, 1 h at 25° C.; averaged over all batches; read-out: Biochemical (MSD MBP) IC50. How it is done: Inhibition of Recombinant Human NF-kappaB-Inducing Kinase (NIKIMAP3K14) Activity
Assay buffer was 50 mM Tris pH 7.5 containing 1 mM ethylene glycol tetraacetic acid (EGTA), 1 mM dithiothreitol (DTT), 0.1 mM Na3VO4, 5 mM MgCl2, 0.01% Tween® 20. Assays were carried out in 384 well Mesoscale high binding plates which had been coated with myelin basic protein (MBP) and blocked with bovine serum albumin to prevent non-specific protein binding. All compounds tested were dissolved in dimethyl sulfoxide (DMSO) and further dilutions were made in assay buffer. Final DMSO concentration was 1% (v/v) in assays. Incubations consisted of compound (1% DMSO in control and blank wells), 25 μM Adenosine-5′-triphosphate (ATP), and 10 nM NIK/MAP3K14 substituting enzyme with buffer in the blank wells. Incubations were carried out for 1 h at 25° C. and were followed by washing and sequential incubation with rabbit anti-phospho-MBP and anti-rabbit Ig Sulfotag antibody before reading bound Sulfotag on a Mesoscale Discovery. Signal obtained in the wells containing blank samples was subtracted from all other wells and IC50's were determined by fitting a sigmoidal curve to % inhibition of control versus Log10 compound concentration.

The subject of experiment [2] is LP-1 cells. Nature of the experiment: Biological Assay C: antiproliferative activity on LP-1 cells (CellTiter-Glo). The class given is cell-based. The conditions noted are these: Homo sapiens, 72 hr treatment. The essentials:
(§1)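 Luminescent ATP signal (CellTiter-Glo) measures growth of myeloma cells following a 72 h compound treatment. Values for the time-zero blank are subtracted, and each mean of duplicate wells is given as percentage of the no-drug control.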

For experiment [3], the target named is T1, Recombinant Human NF-kappaB-Inducing Kinase (NIK/MAP3K14). Nature of the experiment: Biological Assay A2: inhibition of auto-phosphorylation of recombinant human NIK/MAP3K14 (AlphaScreen). It is filed as biochemical. The conditions noted are these: 25 microM ATP, 0.2 nM NIK/MAP3K14, 1 h at 25° C., averaged over all batches, read-out: Alpha-Screen IC50. On the technique in general: Bead proximity is the source of the signal in Alpha formats.

The test system of experiment [4] is P-IKKα levels in L363 cells. Nature of the experiment: Biological Assay B: effect of compounds on P-IKKα levels in L363 cells. The note with it: Homo sapiens, L-363, BAFF stimulated, 2 hr treatment, averaged over all batches, read-out: IKKα Cellular IC50. It is filed as cell-based. How it is done: Effect of Compounds on P-IKKα Levels in L363 Cells
All compounds tested were dissolved in DMSO and further dilutions were made in culture medium. Final DMSO concentration was 1% (v/v) in cell assays. The human L363 cells (ATCC) were cultured in RPMI 1640 medium supplemented with GlutaMax and 10% fetal calf serum (PAA). Cells were routinely maintained at densities of 0.2×10^6 cells per ml-1×10^6 cells per ml at 37° C. in a humidified 5% CO2 atmosphere. Cells were passaged twice a week splitting back to obtain the low density. Cells were seeded in 96 well plates (Nunc 167008) at 2×10^6 per ml media in a volume of 75 μl per well plus 25 μl 1 μg/ml recombinant human B-cell activating factor (BAFF/BLyS/TNFSF13B). Seeded cells were incubated at 37° C. in a humidified 5% CO2 atmosphere for 24 hr. Drugs and/or solvents were added (20 μl) to a final volume of 120 μl. Following 2 hr treatment plates were removed from the incubator and cell lysis was achieved by the addition of 30 μl 5× lysis buffer followed by shaking on a plate shaker at 4° C. for 10 min. At the end of this incubation lysed cells were centrifuged at 800×g for 20 min at 4° C. and the lysate was assessed for P-IKKα levels by sandwich immuno-assay carried out in anti-rabbit antibody coated Mesoscale plates. Within an experiment, the results for each treatment were the mean of 2 replicate wells. For initial screening purposes, compounds were tested using an 8 point dilution curve (serial 1:3 dilutions). For each experiment, controls (containing MG132 and BAFF but no test drug) and a blank incubation (containing MG132 and BAFF and 10 μM ADS125117, a test concentration known to give full inhibition) were run in parallel. The blank incubation value was subtracted from all control and sample values. To determine the IC50 a sigmoidal curve was fitted to the plot of % inhibition of control P-IKKα levels versus Log10 compound concentration.

Experiment [5] concerns L-363 cells. Nature of the experiment: Biological Assay C: antiproliferative activity on L-363 cells (CellTiter-Glo). It is filed as cell-based. The conditions noted are these: Homo sapiens, 72 hr treatment. The essentials:
as §1

For experiment [6], the system named is JJN-3 cells. Nature of the experiment: Biological Assay C: antiproliferative activity on JJN-3 cells (CellTiter-Glo). It is filed as cell-based. The note with it: Homo sapiens, 72 hr treatment. The essentials: as §1
Background: In ATP-based viability assays light output follows the ATP content of the culture.

Each structure is given as a SMILES string.

T1 sequence (Q99558 whole entry): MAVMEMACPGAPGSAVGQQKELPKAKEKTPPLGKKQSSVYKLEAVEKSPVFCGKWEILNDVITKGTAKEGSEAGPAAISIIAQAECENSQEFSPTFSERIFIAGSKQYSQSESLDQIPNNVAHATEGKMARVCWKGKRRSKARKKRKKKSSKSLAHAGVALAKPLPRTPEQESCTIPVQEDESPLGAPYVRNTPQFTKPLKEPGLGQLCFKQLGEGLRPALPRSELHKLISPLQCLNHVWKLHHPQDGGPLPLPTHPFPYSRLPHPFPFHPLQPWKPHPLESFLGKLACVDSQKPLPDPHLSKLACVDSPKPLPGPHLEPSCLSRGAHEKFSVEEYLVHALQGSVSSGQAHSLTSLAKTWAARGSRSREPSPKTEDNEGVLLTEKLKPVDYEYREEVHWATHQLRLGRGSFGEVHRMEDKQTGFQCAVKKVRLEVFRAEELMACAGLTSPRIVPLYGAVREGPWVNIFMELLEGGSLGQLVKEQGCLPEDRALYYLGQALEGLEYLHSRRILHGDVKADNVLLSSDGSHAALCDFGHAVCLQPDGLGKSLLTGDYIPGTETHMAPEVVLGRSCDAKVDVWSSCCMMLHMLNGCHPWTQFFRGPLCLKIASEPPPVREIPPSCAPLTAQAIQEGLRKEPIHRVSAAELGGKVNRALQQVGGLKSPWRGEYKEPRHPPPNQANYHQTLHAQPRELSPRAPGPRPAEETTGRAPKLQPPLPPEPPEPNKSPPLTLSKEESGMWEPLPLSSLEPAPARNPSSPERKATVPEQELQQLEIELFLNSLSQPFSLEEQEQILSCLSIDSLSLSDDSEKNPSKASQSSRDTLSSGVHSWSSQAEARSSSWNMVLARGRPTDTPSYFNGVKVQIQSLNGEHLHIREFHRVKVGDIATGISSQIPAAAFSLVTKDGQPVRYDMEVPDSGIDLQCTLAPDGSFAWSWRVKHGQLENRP

Turning to `CC(C)(O)CCc1cn(-c2ccnc(N)n2)c2cc(C#CC3(O)CCCC3)ncc12` [Compound 32], the results for the IC50 in experiment [1], in experiment [3] and in experiment [4] were 22 nM, 12 nM and 154 nM, respectively. For the same compound, the EC50 (as a rule, the concentration that produces a half-maximal response) in experiment [2] amounted to 6890 nM; in experiment [5], 1800 nM; in experiment [6] it was 473 nM.
Consider `CC(C)(O)C#Cc1cc2c(cn1)c(CCC(C)(C)O)cn2-c1nc(N)ncc1F` [Compound 33], for which the half-inhibitory concentration (IC50) (as a rule, the midpoint of a concentration-inhibition curve) came to 53 nM in experiment [1], 25 nM in experiment [3] and 256 nM in experiment [4]. In addition, the EC50 in experiment [2] turned out to be 5350 nM; in experiment [5], 903 nM; in experiment [6], 1730 nM.
`CC(C)(O)CCc1cn(-c2nc(N)ncc2F)c2cc(C#CC3(O)CCCC3)ncc12` [Compound 34]: the figures for the half-maximal inhibitory concentration (IC50) in experiment [1], in experiment [3] and in experiment [4] were 11 nM, 13 nM and 199 nM, respectively. The results for the EC50 in experiment [2], in experiment [5] and in experiment [6] were 3390 nM, 2240 nM and 1710 nM, respectively.
As for `CC(C)(O)C#Cc1cc2c(cn1)c(/C=C/C#N)cn2-c1ccnc(N)n1` [Compound 35], the 50% inhibitory concentration (IC50) in experiment [1] was 89 nM; in experiment [3] it was 49 nM; in experiment [4], 161 nM. Moreover, the EC50 is 2060 nM in experiment [2], 959 nM in experiment [5] and 420 nM in experiment [6].
Consider `CC(C)(O)C#Cc1cc2c(cn1)c(CCC#N)cn2-c1ccnc(N)n1` [Compound 36], for which the IC50 in experiment [1] was 25 nM; in experiment [3], 12 nM; in experiment [4], 18 nM. Also, the EC50 in experiment [2] was 4540 nM; in experiment [5], 360 nM; in experiment [6], 199 nM.
Turning to `N#CCCc1cn(-c2ccnc(N)n2)c2cc(C#CC3(O)CCCC3)ncc12` [Compound 37], the concentration for half-maximal inhibition (IC50) was found to be 5.1 nM in experiment [1], 29 nM in experiment [3] and 119 nM in experiment [4]. The 50% effective concentration (EC50) in experiment [2] was determined as 5170 nM; in experiment [5], 1300 nM; in experiment [6], 871 nM.
